Measured values as given in ChEMBL document CHEMBL3352591, “Total synthesis of clavatadine A” (J Nat Prod, 2015).

Target: Coagulation factor XI (Homo sapiens, UniProt P03951)
Assay: Inhibition of human coagulation factor 11a pre-incubated for 15 mins before substrate S2366 addition and measured after 2 hrs post substrate addition

Sequence of Coagulation factor XI (P03951 19-387 limits assumed): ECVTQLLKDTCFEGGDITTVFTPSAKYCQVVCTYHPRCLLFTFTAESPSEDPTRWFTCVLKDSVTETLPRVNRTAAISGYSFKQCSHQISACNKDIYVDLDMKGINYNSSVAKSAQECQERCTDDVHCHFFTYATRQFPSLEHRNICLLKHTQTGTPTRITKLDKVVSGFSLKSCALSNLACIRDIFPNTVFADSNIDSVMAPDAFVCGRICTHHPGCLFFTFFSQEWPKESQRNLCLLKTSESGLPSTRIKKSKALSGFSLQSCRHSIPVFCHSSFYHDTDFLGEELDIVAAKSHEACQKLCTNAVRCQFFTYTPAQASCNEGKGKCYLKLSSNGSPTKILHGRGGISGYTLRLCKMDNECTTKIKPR
Sequence of Coagulation factor XI (P03951 388-625 limits assumed): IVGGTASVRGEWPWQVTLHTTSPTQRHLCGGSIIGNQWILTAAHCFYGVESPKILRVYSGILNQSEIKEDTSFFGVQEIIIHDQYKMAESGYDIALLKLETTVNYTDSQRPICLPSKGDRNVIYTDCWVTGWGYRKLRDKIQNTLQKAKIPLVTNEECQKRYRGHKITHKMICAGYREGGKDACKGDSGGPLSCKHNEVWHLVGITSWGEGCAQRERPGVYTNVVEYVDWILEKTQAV

N=C(N)NCCCCNC(=O)Oc1c(Br)cc(O)c(CC(=O)O)c1Br
IC50: 6.3 µM
